These results are taken from patent publication US12617744B2, “Production method for reduced coenzyme Q10 form-II type crystal or crystalline solid thereof” (KANEKA CORPORATION, priority 2021, dated 2026).

Series [1] can be described thus: Evaluation of slurry filterability by constant pressure filtration (average specific filtration resistance). The settings on record: slurry cooled to 1° C., filtrate volume 200 mL, filtration pressure 0.1 hPa. Type of series: physicochemical. As to the method:
The slurries obtained in Examples and Comparative Example were subjected to constant pressure filtration with a filtrate volume of 200 mL and a filtration pressure of 0.1 hPa and the filtration rate was measured. The average specific filtration resistance (αav) was calculated and used for the evaluation of filterability.

The nature of series [2]: Median diameter measurement with particle size distribution analyzer. Type of series: physicochemical. The note with it: reduced coenzyme Q10 crystal obtained; Partica LA-960. As to the method:
The median diameters of reduced coenzyme Q10 crystals obtained in Examples and Comparative Example were measured using the device described below. • Particle size distribution analyzer: Partica LA-960 <Percentage of Form II Crystal in Reduced Coenzyme Q10 Crystal>

The conditions of series [3]: compared with oxidized coenzyme Q10; cited from earlier work.
The conditions of series [4]: compared with conventional reduced coenzyme Q10 Form I crystal; cited from earlier work.
The nature of series [5]: Saturation concentration of crystal forms in alcohol. Format: physicochemical. The settings on record: Form II crystal compared with Form I crystal. The text has this:
The alcohol is preferably a monohydric alcohol having 1 to 5 carbon atoms. Examples of a monohydric alcohol having 1 to 5 carbon atoms include methanol, ethanol, n-propanol, isopropanol, n-butanol, isobutanol, and n-pentanol. As the alcohol, ethanol is particularly preferable because the saturation concentration of Form II crystal is sufficiently lower than the saturation concentration of Form I crystal and is easy to handle. As the alcohol, those exemplified above may be used alone, or two or more thereof may be mixed and used.

On to `COc1c(O)c(C)c(C/C=C(\C)CC/C=C(\C)CC/C=C(\C)CC/C=C(\C)CC/C=C(\C)CC/C=C(\C)CC/C=C(\C)CC/C=C(\C)CC/C=C(\C)CCC=C(C)C)c(O)c1OC` [Example 1, reduced coenzyme Q10], for which, in series [1], the “average specific filtration resistance (αav)” value was 0.47×10^10 m/kg. The compound further displayed a Median diameter in series [2] of 115.3 μm. Regarding `COc1c(O)c(C)c(C/C=C(\C)CC/C=C(\C)CC/C=C(\C)CC/C=C(\C)CC/C=C(\C)CC/C=C(\C)CC/C=C(\C)CC/C=C(\C)CC/C=C(\C)CCC=C(C)C)c(O)c1OC` [reduced coenzyme Q10], the oral absorbability entry in series [3] is “higher oral absorbability than that of oxidized coenzyme Q10”. Turning to `COc1c(O)c(C)c(C/C=C(\C)CC/C=C(\C)CC/C=C(\C)CC/C=C(\C)CC/C=C(\C)CC/C=C(\C)CC/C=C(\C)CC/C=C(\C)CC/C=C(\C)CCC=C(C)C)c(O)c1OC` [Comparative Example 1, reduced coenzyme Q10], the “average specific filtration resistance (αav)” value in series [1] was 3.4×10^10 m/kg. Also, the Median diameter in series [2] is 68.2 μm. With `COc1c(O)c(C)c(C/C=C(\C)CC/C=C(\C)CC/C=C(\C)CC/C=C(\C)CC/C=C(\C)CC/C=C(\C)CC/C=C(\C)CC/C=C(\C)CC/C=C(\C)CCC=C(C)C)c(O)c1OC` [reduced coenzyme Q10 Form II crystal, reduced coenzyme Q10], the “stability of crystal form” value in series [4] is given as “much more stable than the conventional reduced coenzyme Q10”. The “saturation concentration in an alcohol” value in series [5] was “lower than the saturation concentration of a Form I crystal”. Take `COc1c(O)c(C)c(C/C=C(\C)CC/C=C(\C)CC/C=C(\C)CC/C=C(\C)CC/C=C(\C)CC/C=C(\C)CC/C=C(\C)CC/C=C(\C)CC/C=C(\C)CCC=C(C)C)c(O)c1OC` [Example 2, reduced coenzyme Q10]: the “average specific filtration resistance (αav)” value in series [1] is recorded as 0.98×10^10 m/kg. The compound further had a Median diameter in series [2] of 87.6 μm.

As for `COc1c(O)c(C)c(C/C=C(\C)CC/C=C(\C)CC/C=C(\C)CC/C=C(\C)CC/C=C(\C)CC/C=C(\C)CC/C=C(\C)CC/C=C(\C)CC/C=C(\C)CCC=C(C)C)c(O)c1OC` [Example 3, reduced coenzyme Q10], in series [1], the “average specific filtration resistance (αav)” value is 0.48×10^10 m/kg. The Median diameter in series [2] is 107.3 μm.
